# In patent US11415579B2, “Assay for measuring a rate of reaction between a target and a ligand candidate” (Imperial College Innovations Ltd., priority 2016, dated 2022):
# Legend:
# Cdk2(R122C) (C177A) = target: T1, Cdk2(R122C) (C177A) (Homo sapiens, UniProt P24941, C177A/R122C); assay: Kinetic thiol consumption assay with Cdk2 mutant R122C; type: binding; parameters: key to Rate enhancement, Cdk2 R122C: rate constant with Cdk2 ÷ rate constant with model thiol (fold); conditions: additional mutation C177A; for Rate constant with Cdk2 R122C: Protein: Cdk2, cysteine position R122C, in h-1
# T1 construct: poly-histidine; made in house; host or cells: E. coli
# Procedure, shortened: (§1)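 His-tagged single-surface-cysteine Cdk2 mutants (C177A background) from E. coli, 5 μM in degassed phosphate buffer pH 8, pre-treated with immobilized TCEP beads. Fluorescence (ex/em 380/470 nm) read after 1 h at room temperature, normalized to DMSO/thiol-only control; first-order decay fits gave rate constants, divided by model-thiol rate for rate enhancement.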
# Cdk2(C177A, F80C) = target: T2, Cdk2(C177A, F80C) (Homo sapiens, UniProt P24941, C177A/F80C); assay: Kinetic thiol consumption assay with Cdk2 mutant F80C, incl. kobs versus concentration (Kd, k2); type: binding; parameters: key to Rate enhancement, Cdk2 F80C: Cdk2 rate constant divided by model-thiol rate constant; conditions: additional mutation C177A; for Rate constant with Cdk2 F80C: Protein: Cdk2, cysteine position F80C, in h^-1
# T2 construct: poly-histidine; made in house; host or cells: E. coli
# Procedure, shortened: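 His-tagged Cdk2(C177A/F80C) from E. coli or model thiol, 5 μM in degassed phosphate buffer pH 8 with TCEP beads, reacted with acrylamide ligands; fluorescence (ex/em 380/470 nm) normalized to DMSO control and fitted to first-order decay for kobs. Kd and k2 obtained from hyperbolic fit of kobs versus ligand concentration.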
# Cdk2(S181C) (C177A) = target: T3, Cdk2(S181C) (C177A) (Homo sapiens, UniProt P24941, C177A/S181C); assay: Kinetic thiol consumption assay with Cdk2 mutant S181C; type: binding; parameters: key to Rate enhancement, Cdk2 S181C: rate constant with Cdk2 ÷ rate constant with model thiol (fold); conditions: additional mutation C177A; for Rate constant with Cdk2 S181C: Protein: Cdk2, cysteine position S181C, in h^-1
# T3 construct: poly-histidine; made in house; host or cells: E. coli
# Procedure, shortened: as §1
# Cdk2[C177A, F80C, K278C] = target: T4, Cdk2[C177A, F80C, K278C] (Homo sapiens, UniProt P24941, C177A/F80C/K278C); assay: Kinetic thiol consumption assay with mutant Cdk2 as model thiol; type: binding; parameters: unit not given here; conditions: 500 μM ligand, 5 μM thiol, phosphate buffer pH 8
# T4 construct: poly-histidine; made in house; host or cells: E. coli
# Procedure, shortened: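 Model thiol: His-tagged human Cdk2 C177A/F80C/K278C (two engineered surface cysteines), E. coli-expressed, 5 μM in degassed phosphate buffer pH 8 with immobilized TCEP beads (2% v/v). Fluorescence (ex/em 380/470 nm) followed over time at room temperature, normalized to DMSO/thiol control. First-order decay fit gives rate constants.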
# Cdk2(H71C) (C177A) = target: T5, Cdk2(H71C) (C177A) (Homo sapiens, UniProt P24941, C177A/H71C); assay: Kinetic thiol consumption assay with Cdk2 mutant H71C; type: binding; parameters: key to Rate enhancement, Cdk2 H71C: rate constant with Cdk2 ÷ rate constant with model thiol (fold); conditions: additional mutation C177A; for Rate constant with Cdk2 H71C: Protein: Cdk2, cysteine position H71C, in h^-1
# T5 construct: poly-histidine; made in house; host or cells: E. coli
# Procedure, shortened: as §1
# [1] = Kinetic thiol consumption assay with model thiol glutathione; type: physicochemical; parameters: Rate constant with glutathione (k(GSH)): unit not given here; conditions: for Rate constant with glutathione (k(GSH)): 500 μM ligand, 5 μM thiol, phosphate buffer pH 8; for Rate constant with Glutathione: Protein: Glutathione, cysteine position NA, in h-1
# Procedure, shortened: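 Rate constants for acrylamide reaction with 5 μM glutathione come from first-order exponential fits of normalized fluorescence decay (ex 380, em 470 nm). Reactions run in degassed phosphate buffer at pH 8 containing TCEP beads, room temperature.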
# Cdk2(N272C) (C177A) = target: T6, Cdk2(N272C) (C177A) (Homo sapiens, UniProt P24941, C177A/N272C); assay: Kinetic thiol consumption assay with Cdk2 mutant N272C; type: binding; parameters: key to Rate enhancement, Cdk2 N272: rate constant with Cdk2 ÷ rate constant with model thiol (fold); conditions: for Rate enhancement, Cdk2 N272: Cdk2 N272, additional mutation C177A; for Rate constant with Cdk2 N272C: Protein: Cdk2, cysteine position N272C, additional mutation C177A, in h^-1
# T6 construct: poly-histidine; made in house; host or cells: E. coli
# Procedure, shortened: as §1
# Cdk2(S276C) (C177A) = target: T7, Cdk2(S276C) (C177A) (Homo sapiens, UniProt P24941, C177A/S276C); assay: Kinetic thiol consumption assay with Cdk2 mutant S276C; type: binding; parameters: key to Rate enhancement, Cdk2 S276C: rate constant with Cdk2 ÷ rate constant with model thiol (fold); conditions: additional mutation C177A; for Rate constant with Cdk2 S276C: Protein: Cdk2, cysteine position S276C, in h^-1
# T7 construct: poly-histidine; made in house; host or cells: E. coli
# Procedure, shortened: as §1
# [2] = target: T8, human cyclin-dependent kinase 2 (Cdk2) (Homo sapiens, UniProt P24941); assay: Kinetic thiol consumption assay with wild type Cdk2 (C177); type: binding; parameters: key to Rate enhancement, Cdk2 WT: k(Cdk2) divided by k(model thiol); Rate constant with Cdk2 (k(Cdk2)): unit not given here; conditions: for Rate constant with Cdk2 (k(Cdk2)): 500 μM ligand, 5 μM thiol, phosphate buffer pH 8; for Rate enhancement, Cdk2 WT: no additional mutations; for Rate constant with Cdk2 WT: Protein: Cdk2, cysteine position WT, in h^-1; for k(Cdk2)/k(Cdk2_mut) rate enhancement: model thiol Cdk2[C177A, F80C, K278C]; for k(Cdk2)/k(GSH) rate enhancement: model thiol glutathione
# T8 construct: poly-histidine; made in house; host or cells: E. coli
# Procedure, shortened: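 His-tagged human Cdk2 from E. coli (sole surface cysteine C177) or a model thiol, each 5 μM in degassed phosphate buffer pH 8 with immobilized TCEP, reacted with acrylamides at room temperature. Fluorescence (ex 380/em 470) normalized to DMSO/thiol control over time; first-order rate constants, Cdk2 rate divided by model-thiol rate.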
# Cdk2(T182C) (C177A) = target: T9, Cdk2(T182C) (C177A) (Homo sapiens, UniProt P24941, C177A/T182C); assay: Kinetic thiol consumption assay with Cdk2 mutant T182C; type: binding; parameters: key to Rate enhancement, Cdk2 T182C: rate constant with Cdk2 ÷ rate constant with model thiol (fold); conditions: additional mutation C177A; for Rate constant with Cdk2 T182C: Protein: Cdk2, cysteine position T182C, in h^-1
# T9 construct: poly-histidine; made in house; host or cells: E. coli
# Procedure, shortened: as §1
"Rate enhancement, Cdk2 R122C (Cdk2(R122C) (C177A))",Rate constant with Cdk2 R122C (Cdk2(R122C) (C177A)),"Rate enhancement, Cdk2 F80C (Cdk2(C177A, F80C))","Rate constant with Cdk2 F80C (Cdk2(C177A, F80C))","Rate enhancement, Cdk2 S181C (Cdk2(S181C) (C177A))",Rate constant with Cdk2 S181C (Cdk2(S181C) (C177A)),"Rate constant with Cdk2[C177A, F80C, K278C] (k(Cdk2_mut)) (Cdk2[C177A, F80C, K278C])","Rate enhancement, Cdk2 H71C (Cdk2(H71C) (C177A))","Rate enhancement, Cdk2 N272 (Cdk2(N272C) (C177A))","Rate enhancement, Cdk2 S276C (Cdk2(S276C) (C177A))",Rate constant with Cdk2 S276C (Cdk2(S276C) (C177A)),Rate constant with Cdk2 (k(Cdk2)) [2],"Rate enhancement, Cdk2 WT [2]",Rate constant with Cdk2 WT [2],k(Cdk2)/k(Cdk2_mut) rate enhancement [2],k(Cdk2)/k(GSH) rate enhancement [2],"Rate enhancement, Cdk2 T182C (Cdk2(T182C) (C177A))",Rate constant with Cdk2 T182C (Cdk2(T182C) (C177A)),SMILES,Rate constant with glutathione (k(GSH)) [1],Rate constant with Glutathione [1],further results
0.2711,0.007767,0.4705,0.01348,0.4684,0.01342,0.00414,0.9714,0.5689,0.7682,0.02201,0.01181,0.4122,0.01181,2.854,0.4129,2,0.05729,C=CC(=O)N1CCN(S(C)(=O)=O)CC1c1ccccc1 (stereo not shown) [EL-1160],0.0286,0.02865,Rate constant with Cdk2 H71C (Cdk2(H71C) (C177A)): 0.02783; Rate constant with Cdk2 N272C (Cdk2(N272C) (C177A)): 0.0163
0,,0.2794,0.002151,0.9819,0.007559,0.00073,0,0.09396,2.9904E−12,2.302E−14,0.00239,0.4757,0.003662,3.262,0.4934,0.1829,0.001408,C=CC(=O)NC(Cc1ccccc1)C(O)CF (stereo not shown) [EL-1164],0.00485,0.007698,Rate constant with Cdk2 N272C (Cdk2(N272C) (C177A)): 0.0007233
0.3022,0.004032,0.3123,0.004166,1.741,0.02323,0.00175,0.8583,0.6555,0.6022,0.008034,0.00974,0.7298,0.009736,5.551,0.7249,2.927,0.03904,C=CC(=O)N1CCCN2C(=O)CCC12c1ccc(OC)cc1 (stereo not shown) [EL-1168],0.01343,0.01334,Rate constant with Cdk2 H71C (Cdk2(H71C) (C177A)): 0.01145; Rate constant with Cdk2 N272C (Cdk2(N272C) (C177A)): 0.008745
0.532,0.002235,3.249,0.01365,0.5058,0.002125,0.00688,0.8572,0,0.716,0.003008,0.0009,0.3449,0.001449,0.131,0.3555,1.377,0.005783,C=CC(=O)NCCc1c[nH]c2ccccc12 [EL-1174],0.00253,0.004201,Rate constant with Cdk2 H71C (Cdk2(H71C) (C177A)): 0.003601
0.5841,0.003828,2.859,0.01874,0.8531,0.005591,0.00864,1.823,0.4193,0.8088,0.005301,0.00376,0.574,0.003762,0.4353,0.5564,2.26,0.01481,C=CC(=O)N1CCN(Cc2ccc(Cl)cc2)CC1 [EL-1183],0.00676,0.006554,Rate constant with Cdk2 H71C (Cdk2(H71C) (C177A)): 0.01195; Rate constant with Cdk2 N272C (Cdk2(N272C) (C177A)): 0.002748
0.1436,0.001907,0.4424,0.005875,0.2887,0.003834,0.00336,0.4465,0.5301,0.4007,0.005321,0.00596,0.6935,0.00921,1.774,0.9394,4.397,0.05839,C=CC(=O)N1CCCC(C(=O)OCC)C1 (stereo not shown) [EL-1187],0.00634,0.01328,Rate constant with Cdk2 H71C (Cdk2(H71C) (C177A)): 0.005929; Rate constant with Cdk2 N272C (Cdk2(N272C) (C177A)): 0.00704
0.8326,0.01243,0.1205,0.001799,1.037,0.01548,0.0156,0.6345,1.058,0.1863,0.002781,0.01014,0.9116,0.01361,0.65,0.6783,34.92,0.5214,C=CC(=O)Nc1cccc(Nc2ncnc3cc(OC)c(OC)cc23)c1 [GC248],0.01495,0.01493,Rate constant with Cdk2 H71C (Cdk2(H71C) (C177A)): 0.009473; Rate constant with Cdk2 N272C (Cdk2(N272C) (C177A)): 0.01579
